How the values were obtained:
Pseudomonas aeruginosa = assay: Effect on intestinal bacteria: number of Pseudomonas aeruginosa in feces; assay type: in vivo, ICR mice; details: mouse, in vivo, po, 500 mg/kg/day
Experimental: (§1) Effects of the present compound on intestinal bacteria
(§2) Each of the present compounds respectively produced in Examples 1 to 18 was orally administered continuously for 2 days at a daily dose rate of 500 mg/kg body weight to each of five female ICR mice of each group after 6 weeks of their birth.
(§3) Each of the two fecal specimens respectively collected from each mouse before and after one day of the administration was diluted with 100 times by weight of an anaerobic diluent (a phosphoric acid buffer solution) and was ground in a mortar, and 0.1 ml of the thus ground material was smeared on each of the following culture media for the following bacteria, and the thus inoculated culture media were incubated under the following conditions. Thereafter, the number of the following bacteria in each of the thus cultured media was determined.
NAC agar 37° C., one day, […]

Escherichia coli = assay: Effect on intestinal bacteria: number of Escherichia coli in feces; assay type: in vivo, ICR mice; details: after oral administration for 2 days, 500 mg/kg/day, female ICR mice; before: 6.4
Experimental: (b) Effect on the intestinal bacterial colonies:
[…] Each portion of the two kinds of the feces was cultured at 25° C. or 37° C. in a variety of culture medium for one to five days to see the state of Escherichia coli, Pseudomonas aeruginosa, a Streptococcus species, a Lactobacillus species, Lactobacillus bifidus and a Bacteroides species in the culture medium.
as §1
Each of the two fecal […] by weight of an anaerobic diluent (a phosphoric acid buffer solution) and was ground in a mortar, and 0.1 ml of the thus ground material was smeared on each of the following culture media for the following bacteria, and the thus inoculated culture media were incubated under the following conditions. Thereafter, the number of the following bacteria in each of the thus cultured media was determined.

[1] = tested on: a species of Streptococcus; assay: Effect on intestinal bacteria: number of a sp. of Streptococcus in feces; assay type: in vivo, ICR mice; details: mouse, in vivo, po, 500 mg/kg/day
Experimental: (§4) (b) Effect on the intestinal bacterial colonies: […]
as §1, §2, §3
a species of Streptococcus
TATAC agar 37° C., one day, […]

[2] = tested on: Escherichia coli IFO 12734; assay: Antibacterial activity in vitro (MIC) against Escherichia coli; assay type: cell-based; details: IFO12734, Mueller-Hinton agar, 18 to 24 hours, 37° C., read-out: MIC (minimum growth inhibiting concentration) against Escherichia coli
Experimental: (§5) (c) Anti-bacterial activity (in vitro):
(§6) Minimum concentration of the present compound inhibiting the growth of the following bacteria was determined according to the standard procedures of Japan Society of Chemotherapy:
Escherichia coli IFO 12734 and
(§7) Determination of the antibacterial activity of the present compound produced in Examples 1 to 18, respectively was carried out according to the standard procedures of Japan Society of Chemotherapy for finding MIC (the minimum concentration of a specimen to inhibit the growth of a species of bacteria).
(§8) A series of diluted solutions of each of the present compound were mixed with 9 times by weight of Mueller-Hinton's culture medium as the culture medium for determining the sensitivity of a bacterial species, and flat agar culture plates were prepared by using the thus obtained mixture.
(§9) Each of the liquids respectively containing one of the bacterial species shown in Table 2 was smeared onto each of the thus prepared flat agar culture plates with a platinum loop, in length of about 2 cm, and the thus treated plates were incubated for 18 to 24 hours at 37° C. Thereafter, by observing the growth state of each bacterial species on the cultured plates, the minimum concentration of each compound completely inhibiting the growth of each bacterial species was found.

a species of Bacteroides = assay: Effect on intestinal bacteria: number of a sp. of Bacteroides in feces; assay type: in vivo, ICR mice; details: mouse, in vivo, po, 500 mg/kg/day
Experimental: as §4, §1, §2, §3
a species of Bacteroides
NBGT agar 37° C., 5 days, […]

Lactobacillus bifidus = assay: Effect on intestinal bacteria: number of Lactobacillus bifidus in feces; assay type: in vivo, ICR mice; details: mouse, in vivo, po, 500 mg/kg/day
Experimental: as §4, §1, §2, §3
BS agar 37° C., 5 days, […]

[3] = tested on: Staphylococcus aureus IAM 1011; assay: Antibacterial activity in vitro (MIC) against Staphylococcus aureus; assay type: cell-based; details: IAM1011, Mueller-Hinton agar, 18 to 24 hours, 37° C., read-out: MIC (minimum growth inhibiting concentration) against Staphylococcus aureus
Experimental: as §5, §6
Staphylococcus aureus IAM 1011
as §7, §8, §9

[4] = tested on: a species of Lactobacillus; assay: Effect on intestinal bacteria: number of a sp. of Lactobacillus in feces; assay type: in vivo, ICR mice; details: mouse, in vivo, po, 500 mg/kg/day
Experimental: as §4, §1, §2, §3
a species of Lactobacillus
LBS agar 37° C., 5 days, […]

| SMILES | Number of Pseudomonas aeruginosa after the administration (Pseudomonas aeruginosa) | Number of Escherichia coli after the administration (Escherichia coli) | Number of a sp. of Streptococcus after the administration [1] | MIC [2] [µg/mL] | Number of a sp. of Bacterioides after the administration (a species of Bacteroides) | Number of Lactobacillus bifidus after the administration (Lactobacillus bifidus) | MIC [3] [µg/mL] | Number of a sp. of Lactobacillus after the administration [4] |
| --- | --- | --- | --- | --- | --- | --- | --- | --- |
| COC(=O)CNC(=O)c1ccc(NC(=O)C2=C(COC(C)=O)CSC3C(NC(=O)CSc4ccncc4)C(=O)N23)cc1 (centres unmarked) [Example 3, N-(4-carbomethoxymethylcarbamoylphenyl)-[7-(4-pyridylthioacetamido)cephalosporanic]amide] | < 3.0 Log10 (number of bacteria/g feces) | 6.5 Log10 (number of bacteria/g feces) | 6.7 Log10 (number of bacteria/g feces) | ≥ 100 | 8.1 Log10 (number of bacteria/g feces) | 8.5 Log10 (number of bacteria/g feces) | ≥ 50 | 9.1 Log10 (number of bacteria/g feces) |
| COC(=O)CNC(=O)c1ccc(NC(=O)C2=C(CSc3nnc(C)s3)CSC3C(NC(=O)Cn4cnnn4)C(=O)N23)cc1 (centres unmarked) [Example 15, N-(4-carbomethoxymethylcarbamoylphenyl)-{7-(1-1H-tetrazolylacetamido)-3-[2-(5-methyl-1,3,4-thiadiazolyl)thiomethyl]-3-cephem-4-carboxylic}amide] | < 3.0 Log10 (number of bacteria/g feces) | 6.5 Log10 (number of bacteria/g feces) | 6.8 Log10 (number of bacteria/g feces) | ≥ 100 | 8.2 Log10 (number of bacteria/g feces) | 8.2 Log10 (number of bacteria/g feces) | ≥ 12.5 | 9.1 Log10 (number of bacteria/g feces) |
| CC(=O)OCC1=C(C(=O)Nc2ccc(C(N)=O)cn2)N2C(=O)C(NC(=O)CSc3ccncc3)C2SC1 (centres unmarked) [Example 6, N-(nicotinamido)-[7-(4-pyridylthioacetamido)cephalosporanic acid]amide] | < 3.0 Log10 (number of bacteria/g feces) | 6.7 Log10 (number of bacteria/g feces) | 6.7 Log10 (number of bacteria/g feces) | ≥ 100 | 8.7 Log10 (number of bacteria/g feces) | 8.6 Log10 (number of bacteria/g feces) | ≥ 100 | 9.0 Log10 (number of bacteria/g feces) |
| Cc1nnc(SCC2=C(C(=O)Nc3ccc(C(N)=O)cn3)N3C(=O)C(NC(=O)Cn4cnnn4)C3SC2)s1 (centres unmarked) [Example 18, N-(6-nicotinic amide)-{7-(1-1h-tetrazolylacetamido)-3-[2-(5-methyl-1,3,4-thiadiazolyl)thiomethyl]-3-cepehem-4-carboxylic}amide] | < 3.0 Log10 (number of bacteria/g feces) | 6.4 Log10 (number of bacteria/g feces) | 6.9 Log10 (number of bacteria/g feces) | ≥ 100 | 8.1 Log10 (number of bacteria/g feces) | 8.4 Log10 (number of bacteria/g feces) | ≥ 12.5 | 9.0 Log10 (number of bacteria/g feces) |

Source: patent publication US4758558A, “N-(substituted)-[7-(2-cyanoacetamido)cephalosporanic]amide derivatives having antibiotic utility” (priority 1982, dated 1988)
